# From PMC5520057, “Modulation of nongenomic activation of PI3K signalling by tetramerization of N-terminally-cleaved RXRα” (Nature Communications, 2017)
# Tests used:
# RXRα-LBD [1] = molecular target: T1, RXRα-LBD (Homo sapiens, UniProt P19793); assay: Isothermal titration calorimetry (ITC), RXRα-LBD; type: binding; conditions: 25 °C, protein 50 μM in 25 mM Tris-HCl, pH 7.5, 150 mM NaCl, 0.1% DMSO, compound 1 mM
# T1 construct: The human RXRα LBD (residues Thr223 to Thr462); made in house; host or cells: Escherichia coli BL21
# T1 sequence (P19793 223-462): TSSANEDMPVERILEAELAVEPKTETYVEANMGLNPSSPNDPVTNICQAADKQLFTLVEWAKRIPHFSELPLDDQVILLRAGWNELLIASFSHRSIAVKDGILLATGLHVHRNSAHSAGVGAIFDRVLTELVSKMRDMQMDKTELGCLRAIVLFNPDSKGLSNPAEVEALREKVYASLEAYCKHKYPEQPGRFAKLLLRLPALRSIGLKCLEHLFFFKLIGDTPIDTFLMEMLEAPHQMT
# Description: (§1) The human RXRα LBD (residues Thr223 to Thr462) cloned as an N-terminal histidine-tagged fusion protein in pET15b expression vector was expressed in Escherichia coli BL21 strain (Stratagene). After sonication, cell extract was incubated with the His60 Ni Superflow resin, and His-tagged RXRα-LBD-resin complexes were washed, eluted and concentrated to 5 mg ml^−1 for subsequent trails. For crystallization experiment, bovine thrombin (Sigma) was used to cleave the His tag from the purified His-tagged RXRα-LBD. The resulting His tag was removed on the Resource-Q column (GE) using 0.1–1 M NaCl gradient and the Tris-Cl pH 8 buffer. RXRα-LDB was further purified using gel filtration on a Superdex 200 2660 column (GE) pre-equilibrated with the 75 mM NaCl, 20 mM Tris-Cl buffer (pH 8).
# Binding of compounds to RXRα-LBD or mutant was studied in […] at 25 °C using isothermal titration calorimetry (ITC) assay that measures the heat either released or absorbed during binding. The purified His-tagged RXRα-LBD or mutant protein (50 μM in 25 mM Tris-HCl, pH 7.5, 150 mM NaCl, 0.1% DMSO) was placed in the sample cell of MicroCal VP-ITC titration calorimeter. The compounds to be studied were diluted to a concentration of 1 mM in the same buffer. All solutions were degassed before the titrations. […] Calorimetric data were analysed using MicroCal Origin software (version 7.0).
# RXRα-LBD [2] = molecular target: T1, RXRα-LBD; assay: Non-denaturing gel electrophoresis, oligomeric state of RXRα-LBD; type: biochemical; conditions: purified RXRα-LBD; 9-cis-RA (0.5 μM) and/or K-80003 (20 μM), 3 h at 4 °C
# Description: as §1
# [3] = test system: p85α / tRXRα/R316E interaction; assay: coIP, p85α with tRXRα/R316E; type: cell-based; conditions: HEK293T cells; K-80003 (5 × 10^−6 M) for 6 h; coIP anti-HA
# Description: (§3) For coIP assay[29], HEK293T cells grown in 10 cm dishes were transfected with various plasmids. Cells were lysed in 1 ml of lysis buffer (20 mM Tris (pH 7.5), 150 mM NaCl, 1% Triton X-100, 1 mM EDTA, 30 mM NaF, 2 mM sodium pyrophosphate) with a cocktail of proteinase inhibitors (Roche). Lysates were incubated with the appropriate antibody for 12 h at 4 °C and subsequently incubated with protein A-Sepharose beads for 1 h. The immunoprecipitates were collected and washed three times with lysis buffer. The protein–antibody complexes recovered on beads were subjected to immunoblotting using appropriate antibodies after separation by SDS-PAGE. Input represents 5% of cell lysates used for coIP assays.
# [4] = test system: p85α / tRXRα/F313A interaction; assay: coIP, p85α with tRXRα/F313A; type: cell-based; conditions: HEK293T cells; K-80003 (5 × 10^−6 M) for 6 h; coIP anti-HA
# Description: as §3
# tRXRα/L433D = assay: Subcellular localization of tRXRα/L433D, immunostaining; type: cell-based; conditions: MCF-7 cells; K-80003 (5 × 10^−6 M) for 3 h, then TNFα (10 ng ml^−1) for 30 min
# Description: Cells mounted on glass slides or tumour tissue frozen sections (5-μm-thick) were washed with PBS and fixed in 4% paraformaldehyde (PFA) for 15 min and permeabilized with PBS containing 0.1% Triton X-100 for 15 min. Fixed cells or tumour tissues were blocked with 5 mg ml^−1 BSA in PBS for 30 min at room temperature, followed with incubation with primary antibodies for 3 h and secondary antibodies at room temperature for 1 h and co-stained with 4′6′-diamidino-2-phenylindole (DAPI) to visualize nuclei. The images were taken under an LSM-510 confocal laser scanning microscope system (Carl Zeiss).
# tRXRα = assay: Nuclear/cytoplasmic fractionation with BS3 crosslinking; type: cell-based; conditions: HEK293T cells, K-80003 (5 × 10^−6 M) for 6 h, one of three similar experiments
# Description: Cell lysates were then prepared and incubated with bis[sulfosuccinimidyl] suberate (BS3, Pierce) dissolved in dimethyl sulfoxide to a final concentration of 1 mM. The reactions were stopped with protein gel loading buffer. Samples were resolved by SDS/PAGE in 8% acrylamide gels and protein bands were visualized by western blotting.
# (§2) Proteins or cell lysates were electrophoresed by SDS-PAGE gel and transferred to polyvinylidene difluoride (PVDF) membrane. The membranes were blocked with 5% skimmed milk in TBST (50 mM Tris-HCl (pH 7.4), 150 mM NaCl and 0.1% Tween20) for 1 h, then incubated with primary antibodies and secondary antibodies and detected using ECL system (Thermo). The dilutions of the primary antibodies were anti-RXRα (ΔN197, Santa Cruz) in 1:1,000, anti-PARP (H-250, Santa Cruz) in 1:3,000, anti-p85α (Millipore) in 1:1,000, anti-p-AKT (D9E, Cell Signaling Technology) in 1:1000, anti-AKT1/2/3 (H-136, Santa Cruz) in 1:1,000, anti-β-actin (Sigma) in 1:5,000, anti-c-myc (9E10, Santa Cruz) in 1:3,000, anti-HA (F-7, Santa Cruz) in 1:3,000, anti-Flag (F1804, Sigma) in 1:3,000. Images of all uncropped western blots can be found in Supplementary Figs 10–14.
# MMTV-PyMT mammary tumour = assay: MMTV-PyMT tumours, western blotting; type: in vivo, MMTV-PyMT mice; conditions: diet with K-80003 (100 mg kg^−1) for 4 weeks
# Description: as §2
# For nude mice xenograft study, Myc-RXRα and Myc-tRXRα cloned into pcdna3.0 vector were stably transfected into MCF-7 cells, and the resulting stable clones and control clone (2 × 10^6 cells in 100 μl) were injected subcutaneously into nude mice (BALB/c, SPF grade, 16–18 g, 4–5-week old). For drug treatment, mice were intraperitoneally injected (i.p.) daily with K-80003 (20 mg kg^−1) diluted in Tween-80 or vehicle (tween-80). Body weight and tumour size were measured every 2 days. […]
smiles,measurement,setting,value
CC1=C(CC(=O)O)c2cc(F)ccc2/C1=C\c1ccc(C(C)C)cc1 [K-80003],N (stoichiometry),RXRα-LBD [1],1.52
same,effect on RXRα-LBD oligomeric state,RXRα-LBD [2],induced an accumulation of tetramers
same,modulation of tRXRα/R316E interaction with p85α,[3],failed to modulate the interaction of both mutants with p85α
same,modulation of tRXRα/F313A interaction with p85α,[4],failed to modulate the interaction of both mutants with p85α
same,effect on cytoplasmic colocalization of p85α with tRXRα/L433D,tRXRα/L433D,not affected by K-80003
same,distribution of tetrameric tRXRα,tRXRα,found exclusively in the nuclear fraction
same,PARP cleavage in PyMT tumours,MMTV-PyMT mammary tumour,induction of PARP cleavage
same,cyclin D expression in PyMT tumours,MMTV-PyMT mammary tumour,inhibition of cyclin D expression
